Reference: patent US12673035B2, “Solid dosage forms of elafibranor” (Genfit, priority 2023, dated 2026)

Legend:
[1] = Particle size analysis of jet-milled (micronized) elafibranor; assay type: physicochemical
Text: Particle size of agglomeration was identified as playing a primary role in the dissolution and variability in the blend uniformity and content uniformity of tablet formulations. In order to obtain suitable particle size distribution, milling of elafibranor was investigated. The micronisation process acts to accelerate grains of powder, with an air jet, in a tornado like flow path within the micronisation chamber of the mill. As particles travel in the circular path, they collide, which leads to a reduction in particle size. Centrifugal force directs larger particles to the outside of the chamber and smaller particles are concentrated in the centre of the mill where they can be transferred to the outlet when the appropriate particle size has been reached.
The micronisation process of elafibranor has been performed with the following jet-mill equipment: Microniser Alpine 200 Aeroplex in ambient conditions of temperature and hygrometry.
The feeder delivers the dosage to the microniser by two screws. This system allows a regularity of the flow. A disposable sleeve is used to separate the air and the micronised product at the end of the microniser.
The micronised elafibranor powder is then collected into polyethylene bags and the obtained weight at the end of the micronisation operation has been recorded.
acceptance criteria: D50%≤5 μm and D90%≤15 μm

[2] = test system: patients with PBC with an inadequate response or intolerance to Ursodeoxycholic acid (UDCA); details: phase 3 trial NCT04526665, N Engl J Med 2023; cited from earlier work
[3] = test system: patients with PBC and inadequate response to Ursodeoxycholic acid (UDCA); test: Phase 2 double-blind, randomized, placebo-controlled trial in PBC; assay type: in vivo, human; details: for mean relative change from baseline to endpoint in serum ALP / median relative change from baseline to endpoint in the pruritus VAS / treatment effect estimate vs placebo, serum ALP (supportive analysis, ANCOVA with baseline ALP as covariate) / mean relative change from baseline to endpoint in GGT / treatment effect estimate vs placebo, GGT (non-parametric randomization-based ANCOVA) / response rates defined by at least 10%, 20% and 40% decrease in ALP from baseline to endpoint, compared to placebo: 12 weeks; for mean relative change from baseline to endpoint in GGT / treatment effect estimate vs placebo, GGT (non-parametric randomization-based ANCOVA) / response rates defined by at least 10%, 20% and 40% decrease in ALP from baseline to endpoint, compared to placebo: mITT set; for response rates defined by at least 10%, 20% and 40% decrease in ALP from baseline to endpoint, compared to placebo: Fishers exact test, p<0.001; for response rate as defined by Paris I risk scores (ALP≤3×ULN, AST≤2×ULN, bilirubin within normal limits) / response rate as defined by Paris II risk scores (ALP≤1.5×ULN, AST≤1.5×ULN, bilirubin within normal limits) / response rate as defined by Toronto I risk scores (ALP≤1.67×ULN) / response rate as defined by Toronto II risk scores (ALP≤1.75×ULN): baseline to endpoint
Protocol: This example describes a double-blind, randomized, placebo-controlled trial to evaluate the efficacy and safety of elafibranor 80 mg and 120 mg once daily (qd) versus placebo in a PBC population.
The study included a screening visit, followed by 12 weeks of double-blind treatment period. Patients attended study visits at randomization, Week 2, 4, 8, 12 during the treatment period.
Elafibranor was administered per os, once daily at 80 mg or 120 mg, for 12 weeks, in the form of tablets of the invention (Formulations 4 and 3). The elafibranor 120 mg and 80 mg tablets contained elafibranor (active ingredient) and excipients (microcrystalline cellulose, povidone, croscarmellose, anhydrous colloidal silica, magnesium stearate, Opadry® II white). The white tablets were provided to the participants in aluminum blisters.
The primary objectives were to compare the effect of daily oral administration of elafibranor 80 mg and 120 mg on changes in serum alkaline phosphatase (ALP) to that of placebo in patients with PBC and inadequate response to Ursodeoxycholic acid (UDCA).
The primary endpoint of the study was to evaluate the efficacy of elafibranor 80 mg or 120 mg with respect to relative change from baseline in serum ALP levels compared to placebo.
Absolute changes in serum ALP levels were monitored from Baseline to week 2, 4, 8 and 12.
The treatment effect estimate was −52.0% (95% CI [−62.5; −41.5]) for the elafibranor 80 mg treatment group and −43.9% (95% CI [−55.7; −32.1]) for the elafibranor 120 mg treatment group.
The primary efficacy supportive analysis conducted using an ANCOVA with baseline ALP as a covariate was consistent with the primary efficacy analysis. The treatment effect estimate was −51.4% (95% CI [−63.3; −39.5]) for the elafibranor 80 mg treatment group and −43.9% (95% CI [−55.8; −31.9]) for the elafibranor 120 mg treatment group.
The percentage of patients was calculated who met the definition of PBC responder criteria applying the Paris I, Toronto I, Toronto II, […], Mayo II, and Barcelona disease prognostic risk criteria. Paris I risk scores were defined as ALP≤3×ULN and AST≤2×ULN and bilirubin within normal limits.
Paris II risk scores were defined as ALP≤1.5×ULN and AST≤1.5×ULN and bilirubin within normal limits.
Toronto I risk scores were defined as ALP≤1.67×ULN.
Toronto II risk scores were defined as ALP≤1.75×ULN.
Considering that pruritus is a preeminent adverse event in subjects with PBC, assessment of pruritus was also considered. More specifically, the change from baseline in pruritus (through 5D-itch scale (measuring the degree, duration, direction [improvement or worsening], disability [effect on daily activities], and distribution of itching) and visual analogue scale for pruritus (VAS).
The 5D-itch scale is a reliable, multidimensional measure of itching that has been validated in patients with chronic pruritus to detect changes over time (Elman S, et al., The 5-D itch scale: a new measure of pruritus. Br J Dermatol. 2010; 162(3):587-593). The VAS is a reliable and validated method of pruritus assessment (Reich A, et al., Visual analogue scale: evaluation of the instrument for the assessment of pruritus. Acta Derm Venereol. 2012; 92(5):497-501).

[4] = test system: liver function of subjects; test: Phase 2a clinical studies and Phase 2b clinical trial, liver function; assay type: in vivo, human; details: 80 mg/day for 1 to 3 months (Phase 2a); 80 mg/day and 120 mg/day for 12 months (Phase 2b)
[5] = test system: patients with PBC with an inadequate response or intolerance to Ursodeoxycholic acid (UDCA); test: Phase 3 double-blind, randomized, placebo-controlled trial in PBC; assay type: in vivo, human; details: 80 mg once daily
Protocol: This example describes a double-blind, randomized, placebo-controlled trial to evaluate the efficacy and safety of elafibranor 80 mg once daily (qd) versus placebo in a PBC population.
The study included a screening visit, followed by 52 weeks of double-blind treatment period. Patients attended study visits at randomization, Week 4, 13, 26, and 39 during the treatment period.
Elafibranor was administered per os, once daily at 80 mg, for 52 weeks, in the form of tablets of the invention (Formulation 4). The elafibranor 80 mg tablets contained elafibranor (active ingredient) and excipients (microcrystalline cellulose, povidone, croscarmellose, anhydrous colloidal silica, magnesium stearate, Opadry® II white). The white tablets were provided to the participants in aluminum blisters.
The primary objectives were to compare the effect of daily oral administration of elafibranor 80 mg on changes in relevant biochemical indicators of cholestasis or in pruritus to that of placebo in patients with PBC with an inadequate response or intolerance to Ursodeoxycholic acid (UDCA).

mouse = test: Acute toxicity study, single oral doses, mouse; assay type: in vivo
Protocol: (§1) According to acute toxicity study results, it can be concluded that elafibranor is extremely safe when administered as single oral doses in rat and mouse, since no sign of toxicity was detected up to the dose of 1000 mg/kg.

rat = test: Acute toxicity study, single oral doses, rat; assay type: in vivo
Protocol: as §1

[6] = mean of clinical batches #1 to #7

Q: Which D50% ([1]; clinical batch #1) does the source give for `CSc1ccc(C(=O)/C=C/c2cc(C)c(OC(C)(C)C(=O)O)c(C)c2)cc1` [micronized elafibranor] here?
A: 2.387 μm

Q: What about the D90% ([1]; clinical batch #1) of the same compound?
A: 6.292 μm

Q: What about the D50% ([1]; clinical batch #2) of the same compound?
A: 3.511 μm

Q: What about the D90% ([1]; clinical batch #2) of the same compound?
A: 10.06 μm

Q: And the D50% ([1]; clinical batch #3)?
A: 2.53 μm

Q: And the D90% ([1]; clinical batch #3)?
A: 6.439 μm

Q: What about the D50% ([1]; clinical batch #4) of the same compound?
A: 4.079 μm

Q: And the D90% ([1]; clinical batch #4)?
A: 10.895 μm

Q: And the D50% ([1]; clinical batch #5)?
A: 2.171 μm

Q: What about the D90% ([1]; clinical batch #5) of the same compound?
A: 6.589 μm

Q: And the D50% ([1]; clinical batch #6)?
A: 2.089 μm

Q: What about the D90% ([1]; clinical batch #6) of the same compound?
A: 6.495 μm

Q: And the D50% ([1]; clinical batch #7)?
A: 2.523 μm

Q: What about the D90% ([1]; clinical batch #7) of the same compound?
A: 6.671 μm

Q: What about the D50% mean [1, 6] of the same compound?
A: 2.756 μm

Q: What about the D90% mean [1, 6] of the same compound?
A: 7.634 μm

Q: With `CSc1ccc(C(=O)/C=C/c2cc(C)c(OC(C)(C)C(=O)O)c(C)c2)cc1` [elafibranor, 2-[2,6-dimethyl-4-[(E)-3-(4-methylsulfanylphenyl)-3-oxoprop-1-enyl]phenoxy]-2-methylpropanoic acid] as the compound, how does the “improvements in relevant biochemical indicators of cholestasis vs placebo” value [2] read?
A: significantly greater improvements in relevant biochemical indicators of cholestasis than placebo

Q: And the “treatment effect estimate vs placebo, relative change from baseline in serum ALP (primary analysis, non-parametric randomization-based ANCOVA)” value ([3]; 80 mg once daily per os, 12 weeks (Formulation 4 tablets))?
A: −52.0%

Q: And the “mean relative change from baseline to endpoint in serum ALP” value ([3]; 80 mg once daily)?
A: −48.3%

Q: What about the “median relative change from baseline to endpoint in the pruritus VAS” value ([3]; 80 mg once daily) of the same compound?
A: −23.7%

Q: What about the “treatment effect estimate vs placebo, serum ALP (supportive analysis, ANCOVA with baseline ALP as covariate)” value ([3]; 80 mg once daily) of the same compound?
A: −51.4%

Q: And the “mean relative change from baseline to endpoint in GGT” value ([3]; 80 mg once daily)?
A: −37.1%

Q: And the “treatment effect estimate vs placebo, GGT (non-parametric randomization-based ANCOVA)” value ([3]; 80 mg once daily)?
A: −38.6%

Q: What about the “response rates defined by at least 10%, 20% and 40% decrease in ALP from baseline to endpoint, compared to placebo” value ([3]; 80 mg once daily) of the same compound?
A: statistically significantly greater proportion of responders

Q: What about the “response rate as defined by Paris I risk scores (ALP≤3×ULN, AST≤2×ULN, bilirubin within normal limits)” value ([3]; 80 mg once daily) of the same compound?
A: 80.0%

Q: And the “response rate as defined by Paris II risk scores (ALP≤1.5×ULN, AST≤1.5×ULN, bilirubin within normal limits)” value ([3]; 80 mg once daily)?
A: 53.3%

Q: What about the “response rate as defined by Toronto I risk scores (ALP≤1.67×ULN)” value ([3]; 80 mg once daily) of the same compound?
A: 66.7%

Q: What about the “response rate as defined by Toronto II risk scores (ALP≤1.75×ULN)” value ([3]; 80 mg once daily) of the same compound?
A: 66.7%

Q: And the “treatment effect estimate vs placebo, relative change from baseline in serum ALP (primary analysis, non-parametric randomization-based ANCOVA)” value ([3]; 120 mg once daily per os, 12 weeks (Formulation 3 tablets))?
A: −43.9%

Q: What about the “mean relative change from baseline to endpoint in serum ALP” value ([3]; 120 mg once daily) of the same compound?
A: −40.6%

Q: And the “median relative change from baseline to endpoint in the pruritus VAS” value ([3]; 120 mg once daily)?
A: −49.5%

Q: What about the “treatment effect estimate vs placebo, serum ALP (supportive analysis, ANCOVA with baseline ALP as covariate)” value ([3]; 120 mg once daily) of the same compound?
A: −43.9%

Q: And the “mean relative change from baseline to endpoint in GGT” value ([3]; 120 mg once daily)?
A: −40.0%

Q: And the “treatment effect estimate vs placebo, GGT (non-parametric randomization-based ANCOVA)” value ([3]; 120 mg once daily)?
A: −39.9%

Q: And the “response rates defined by at least 10%, 20% and 40% decrease in ALP from baseline to endpoint, compared to placebo” value ([3]; 120 mg once daily)?
A: statistically significantly greater proportion of responders

Q: What about the “response rate as defined by Paris I risk scores (ALP≤3×ULN, AST≤2×ULN, bilirubin within normal limits)” value ([3]; 120 mg once daily) of the same compound?
A: 78.6%

Q: And the “response rate as defined by Paris II risk scores (ALP≤1.5×ULN, AST≤1.5×ULN, bilirubin within normal limits)” value ([3]; 120 mg once daily)?
A: 50.0%

Q: And the “response rate as defined by Toronto I risk scores (ALP≤1.67×ULN)” value ([3]; 120 mg once daily)?
A: 78.6%

Q: What about the “response rate as defined by Toronto II risk scores (ALP≤1.75×ULN)” value ([3]; 120 mg once daily) of the same compound?
A: 78.6%

Q: And the “effects on liver function, relevant to PBC” value [4]?
A: Beneficial effects

Q: And the “biochemical response (primary end point), patients” value ([5]; 52 weeks (Formulation 4), 55 of 108 patients)?
A: 51%

Q: And the “difference vs placebo in biochemical response” value ([5]; 52 weeks, 95% CI 32 to 57)?
A: 47 percentage points

Q: What about the “patients in whom the alkaline phosphatase level normalized” value ([5]; at week 52) of the same compound?
A: 15%

Q: What about the “difference vs placebo in alkaline phosphatase normalization” value ([5]; at week 52, 95% CI 6 to 23) of the same compound?
A: 15 percentage points

Q: What about the “difference vs placebo in least-squares mean change on the WI-NRS” value ([5]; through week 52, moderate-to-severe pruritus, 95% CI −1.99 to 0.42, P=0.20) of the same compound?
A: −0.78

Q: What about the “least-squares mean change from baseline through week 52 on the WI-NRS” value ([5]; patients with moderate-to-severe pruritus) of the same compound?
A: −1.93

Q: What about the “dose up to which no sign of toxicity was detected” value (mouse) of the same compound?
A: ≥ 1000 mg/kg

Q: What about the “dose up to which no sign of toxicity was detected” value (rat) of the same compound?
A: ≥ 1000 mg/kg
